Blank lines part the entries; values can stand above or below the compound they belong to.
Tests used:
[1] = target: T1, Retinoic acid receptor alpha (Homo sapiens, UniProt P10276); assay type: functional, cell-based
T1 sequence (P10276 whole entry): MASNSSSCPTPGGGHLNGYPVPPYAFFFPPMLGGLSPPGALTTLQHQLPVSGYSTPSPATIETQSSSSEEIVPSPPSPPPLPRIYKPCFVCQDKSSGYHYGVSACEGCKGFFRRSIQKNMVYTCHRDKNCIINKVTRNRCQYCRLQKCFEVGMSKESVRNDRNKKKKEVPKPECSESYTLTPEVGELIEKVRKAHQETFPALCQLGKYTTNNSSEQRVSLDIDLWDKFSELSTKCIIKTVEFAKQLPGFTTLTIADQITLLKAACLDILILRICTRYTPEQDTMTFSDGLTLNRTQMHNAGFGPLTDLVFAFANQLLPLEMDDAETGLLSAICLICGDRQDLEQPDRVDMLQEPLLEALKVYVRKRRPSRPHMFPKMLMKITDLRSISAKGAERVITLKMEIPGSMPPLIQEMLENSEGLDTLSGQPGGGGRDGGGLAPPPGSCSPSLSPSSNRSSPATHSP

[2] = target: T2, Oxysterols receptor LXR-beta (Homo sapiens, UniProt P55055); assay type: functional
T2 sequence (P55055 whole entry): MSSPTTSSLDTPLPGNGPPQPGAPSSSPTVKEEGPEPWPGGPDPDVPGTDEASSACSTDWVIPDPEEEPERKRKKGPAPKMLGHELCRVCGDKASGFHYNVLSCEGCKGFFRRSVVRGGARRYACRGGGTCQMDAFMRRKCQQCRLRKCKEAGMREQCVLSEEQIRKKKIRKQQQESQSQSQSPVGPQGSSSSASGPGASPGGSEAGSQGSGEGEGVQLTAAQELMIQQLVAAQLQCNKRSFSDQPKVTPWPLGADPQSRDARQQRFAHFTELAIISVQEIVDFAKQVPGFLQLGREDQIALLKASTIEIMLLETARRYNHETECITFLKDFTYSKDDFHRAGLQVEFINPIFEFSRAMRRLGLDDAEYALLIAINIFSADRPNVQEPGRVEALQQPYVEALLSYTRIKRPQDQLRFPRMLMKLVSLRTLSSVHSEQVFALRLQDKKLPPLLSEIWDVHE

[3] = target: T3, Retinoic acid receptor beta (Homo sapiens, UniProt P10826); assay type: functional, cell-based
T3 sequence (P10826 whole entry): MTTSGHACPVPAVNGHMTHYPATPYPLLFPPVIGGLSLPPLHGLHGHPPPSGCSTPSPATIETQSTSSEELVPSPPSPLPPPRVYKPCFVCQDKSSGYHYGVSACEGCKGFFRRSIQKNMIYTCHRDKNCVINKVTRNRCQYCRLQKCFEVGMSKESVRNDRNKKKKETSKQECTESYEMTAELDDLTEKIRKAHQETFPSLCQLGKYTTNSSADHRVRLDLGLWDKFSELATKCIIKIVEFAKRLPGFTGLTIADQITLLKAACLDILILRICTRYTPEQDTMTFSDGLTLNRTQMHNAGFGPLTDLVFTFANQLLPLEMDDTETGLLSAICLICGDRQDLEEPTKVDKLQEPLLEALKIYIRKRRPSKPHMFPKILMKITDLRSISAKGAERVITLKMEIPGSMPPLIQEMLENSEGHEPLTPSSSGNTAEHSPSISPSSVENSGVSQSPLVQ

[4] = target: T4, Estrogen receptor (Homo sapiens, UniProt P03372); assay type: functional
T4 sequence (P03372 whole entry): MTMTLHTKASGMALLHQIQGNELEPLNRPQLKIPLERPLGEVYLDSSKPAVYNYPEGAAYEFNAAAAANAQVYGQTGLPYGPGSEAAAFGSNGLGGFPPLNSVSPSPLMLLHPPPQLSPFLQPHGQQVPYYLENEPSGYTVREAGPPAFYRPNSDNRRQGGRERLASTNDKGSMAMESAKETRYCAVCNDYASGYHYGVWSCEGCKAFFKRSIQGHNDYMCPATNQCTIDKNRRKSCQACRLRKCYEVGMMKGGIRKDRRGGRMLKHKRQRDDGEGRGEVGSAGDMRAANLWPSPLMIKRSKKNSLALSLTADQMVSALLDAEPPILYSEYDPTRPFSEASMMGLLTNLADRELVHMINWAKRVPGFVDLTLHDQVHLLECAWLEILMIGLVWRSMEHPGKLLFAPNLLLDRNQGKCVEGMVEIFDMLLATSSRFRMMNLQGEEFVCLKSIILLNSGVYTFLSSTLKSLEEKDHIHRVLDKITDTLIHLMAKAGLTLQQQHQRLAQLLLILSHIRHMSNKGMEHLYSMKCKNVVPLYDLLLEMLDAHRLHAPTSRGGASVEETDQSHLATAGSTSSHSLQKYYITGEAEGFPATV

[5] = target: T5, D(1A) dopamine receptor (Homo sapiens, UniProt P21728)
T5 sequence (P21728 whole entry): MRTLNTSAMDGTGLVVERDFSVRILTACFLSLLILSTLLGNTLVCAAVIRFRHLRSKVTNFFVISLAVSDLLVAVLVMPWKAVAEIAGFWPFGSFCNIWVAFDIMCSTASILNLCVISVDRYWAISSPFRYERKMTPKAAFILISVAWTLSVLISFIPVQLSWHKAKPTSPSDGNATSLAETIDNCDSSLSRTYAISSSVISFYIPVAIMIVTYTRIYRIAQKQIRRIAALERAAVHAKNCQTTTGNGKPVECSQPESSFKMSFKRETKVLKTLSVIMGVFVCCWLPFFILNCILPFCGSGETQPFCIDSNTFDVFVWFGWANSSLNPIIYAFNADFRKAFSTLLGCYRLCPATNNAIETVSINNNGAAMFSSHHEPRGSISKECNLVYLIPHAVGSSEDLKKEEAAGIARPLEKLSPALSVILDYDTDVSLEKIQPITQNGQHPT

[6] = target: T6, Muscarinic acetylcholine receptor M2 (Homo sapiens, UniProt P08172)
T6 sequence (P08172 whole entry): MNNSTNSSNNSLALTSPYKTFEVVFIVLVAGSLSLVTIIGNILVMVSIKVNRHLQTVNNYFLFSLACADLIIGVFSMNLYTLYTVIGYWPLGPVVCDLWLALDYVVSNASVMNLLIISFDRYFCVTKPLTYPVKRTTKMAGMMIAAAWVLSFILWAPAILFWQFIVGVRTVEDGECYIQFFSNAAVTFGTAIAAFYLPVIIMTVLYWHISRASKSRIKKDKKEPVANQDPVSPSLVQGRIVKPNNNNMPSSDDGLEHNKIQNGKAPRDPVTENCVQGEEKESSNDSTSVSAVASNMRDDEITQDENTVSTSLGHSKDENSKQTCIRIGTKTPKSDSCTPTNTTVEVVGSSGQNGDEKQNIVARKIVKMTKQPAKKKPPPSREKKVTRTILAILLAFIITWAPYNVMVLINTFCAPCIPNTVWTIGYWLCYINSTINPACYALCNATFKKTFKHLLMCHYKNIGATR

[7] = target: T7, Adenosine receptor A3 (Homo sapiens, UniProt P0DMS8)
T7 sequence (P0DMS8 whole entry): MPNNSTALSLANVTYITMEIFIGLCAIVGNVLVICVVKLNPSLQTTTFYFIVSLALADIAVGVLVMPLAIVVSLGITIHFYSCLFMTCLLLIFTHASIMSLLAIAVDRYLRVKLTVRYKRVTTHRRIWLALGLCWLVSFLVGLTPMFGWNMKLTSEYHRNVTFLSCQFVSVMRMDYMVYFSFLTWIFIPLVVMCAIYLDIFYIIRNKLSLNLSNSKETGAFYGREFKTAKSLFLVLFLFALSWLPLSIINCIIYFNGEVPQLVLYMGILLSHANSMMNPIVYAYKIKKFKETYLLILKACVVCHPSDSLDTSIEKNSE

[8] = target: T5, D(1A) dopamine receptor; remark: listed apart in the source
Note: assay procedure not described here.

Compound: CC(C)c1c(C(=O)Nc2ccccc2)c(-c2ccccc2)c(-c2ccc(F)cc2)n1CC[C@@H](O)C[C@@H](O)CC(=O)O [ATORVASTATIN]
AC50 [1]: > 30 µM
AC50 [2]: > 30 µM
AC50 [3]: > 30 µM

Compound: Nc1nc2ccc(OC(F)(F)F)cc2s1 [RILUZOLE]
AC50 [6]: > 30 µM
AC50 [7]: 29.2 µM

Compound: BIVALIRUDIN
AC50 [6]: > 30 µM
AC50 [8]: > 30 µM

Continued, values first:

AC50 [4]: > 30 µM
Compound: [H]/N=C(/N)c1ccc(NCc2nc3cc(C(=O)N(CCC(=O)O)c4ccccn4)ccc3n2C)cc1 [DABIGATRAN]

AC50 [5]: 12 µM
Compound: CCN1CCC[C@H]1CNC(=O)c1cc(S(N)(=O)=O)ccc1OC [LEVOSULPIRIDE]

Source: ChEMBL document CHEMBL5291721, “A preclinical secondary pharmacology resource illuminates target-adverse drug reaction associations of marketed drugs” (Nat Commun, 2023)
